Values after ≈ are worked out from the molar mass of the structure shown.
Columns and labels:
Format in all cases: functional
Aspergillus fumigatus [1] = assay: Antifungal activity against Aspergillus fumigatus
Candida albicans [2] = assay: Antifungal activity against Candida albicans
Aspergillus niger [3] = assay: Antifungal activity against Aspergillus niger MTCC 282 assessed as reduction in microbial growth after 24 hrs by broth micro-dilution method
Candida albicans [4] = assay: Antifungal activity against Candida albicans ATCC 90028 assessed as growth inhibition incubated for 36 hrs by resazurin dye based assay
Rhizopus microsporus = assay: Antifungal activity against Rhizopus microsporus assessed as diameter of inhibition zone
Candida albicans [5] = assay: Antifungal activity against Candida albicans assessed as diameter of inhibition zone
Fusarium solani = assay: Antifungal activity against Fusarium solani ATCC 20327 assessed as reduction in fungal growth incubated ofr 48 hrs by CLSI micro-dilution method
Alternaria alternata = assay: Antifungal activity against Alternaria alternata ATCC 8741 assessed as reduction in fungal growth incubated ofr 48 hrs by CLSI micro-dilution method
Penicillium frequentans = assay: Antifungal activity against Penicillium frequentans ATCC 10110 assessed as reduction in fungal growth incubated ofr 48 hrs by CLSI micro-dilution method
Penicillium chrysogenum = assay: Antifungal activity against Penicillium chrysogenum ATCC 20044 assessed as reduction in fungal growth incubated ofr 48 hrs by CLSI micro-dilution method
Aspergillus flavus [6] = assay: Antifungal activity against Aspergillus flavus ATCC 20046 assessed as reduction in fungal growth incubated ofr 48 hrs by CLSI micro-dilution method
Aspergillus niger [7] = assay: Antifungal activity against Aspergillus niger ATCC 16404 assessed as inhibition of mycelial growth relative to control
Candida albicans [8] = assay: Antifungal activity against Candida albicans ATCC 10231 assessed as inhibition of mycelial growth relative to control
Microsporum audouinii = assay: Antifungal activity against Microsporum audouinii
Candida albicans [9] = assay: Antifungal activity against azole-resistant Candida albicans ATCC 18804 assessed as reduction in fungal growth by XTT assay
Aspergillus fumigatus [10] = assay: Antifungal activity against Aspergillus fumigatus assessed as reduction in fungal growth incubated for 20 to 24 hrs by CLSI based micro-dilution analysis; settings: time 20-24 hrs
[11] = test system: Syncephalastrum racemosum; assay: Antifungal activity against Syncephalastrum racemosum
Geotrichum candidum = assay: Antifungal activity against Geotrichum candidum
Candida albicans [12] = assay: Antifungal activity against azole-resistant Candida albicans ATCC 10231 assessed as fungal growth inhibition incubated for 24 hrs by CLSI protocol based broth microdilution method
Candida albicans [13] = assay: Antifungal activity against azole-resistant Candida albicans ATCC 10231 assessed as reduction in fungal growth by XTT assay
Cryptococcus neoformans = assay: Antifungal activity against Cryptococcus neoformans assessed as reduction in fungal growth incubated for 24 hrs by broth microdilution method
Candida albicans [14] = assay: Antimicrobial activity against Candida albicans ATCC 64124 assessed as reduction in microbial growth by CLSI protocol based micro-broth dilution method
Aspergillus flavus [15] = assay: Antimicrobial activity against Aspergillus flavus assessed as zone of inhibition
Aspergillus niger [16] = assay: Antifungal activity against Aspergillus niger assessed as zone of inhibition by disc diffusion method
Candida albicans [17] = assay: Antifungal activity against Candida albicans assessed as reduction in fungal growth incubated for 72 hrs by agar well diffusion method
Candida albicans [18] = assay: Antifungal activity against azole-resistant Candida albicans ATCC 18804 assessed as fungal growth inhibition incubated for 24 hrs by CLSI protocol based broth microdilution method
[19] = test system: Syncephalastrum racemosum; assay: Antifungal activity against Syncephalastrum racemosum assessed as zone of inhibition
Aspergillus fumigatus [20] = assay: Antifungal activity against Aspergillus fumigatus assessed as reduction in fungal growth incubated for 72 hrs by agar well diffusion method
Aspergillus fumigatus [21] = assay: Antifungal activity against Aspergillus fumigatus assessed as zone of inhibition
Aspergillus fumigatus [22] = assay: Antifungal activity against Aspergillus fumigatus assessed as reduction in fungal growth
[23] = test system: Talaromyces purpureogenus; assay: Antifungal activity against Talaromyces purpureogenus assessed as zone of inhibition by disc diffusion method
Aspergillus terreus = assay: Antifungal activity against Aspergillus terreus assessed as zone of inhibition by disc diffusion method
Aspergillus flavus [24] = assay: Antifungal activity against Aspergillus flavus assessed as zone of inhibition by disc diffusion method
Nakaseomyces glabratus = assay: Antifungal activity against Candida glabrata ATCC 90030
Candida albicans [25] = assay: Antifungal activity against Candida albicans assessed as zone of inhibition
Aspergillus niger [26] = assay: Antifungal activity against Aspergillus niger assessed as zone of inhibition
Candida albicans [27] = assay: Antifungal activity against Candida albicans ATCC 10231
Saccharomyces cerevisiae [28] = assay: Antimicrobial activity against Saccharomyces cerevisiae assessed as zone of inhibition by disc diffusion method
Candida albicans [29] = assay: Antifungal activity against Candida albicans assessed as reduction in fungal growth incubated for 18 hrs by broth microdilution method
Saccharomyces cerevisiae [30] = assay: Antimicrobial activity against Saccharomyces cerevisiae assessed as zone of inhibition
Candida albicans [31] = assay: Antifungal activity against Candida albicans assessed as zone of inhibition by serial dilution and disc diffusion method
Candida albicans [32] = assay: Antifungal activity against Candida albicans SC5314 assessed as reduction in fungal growth incubated for 72 hrs by broth microdilution method
Pichia kudriavzevii = assay: Antifungal activity against Candida krusei ATCC 6258
Candida parapsilosis = assay: Antifungal activity against Candida parapsilosis ATCC 22019; settings: Lodderomyces parapsilosis
Candida albicans [33] = assay: Antifungal activity against Candida albicans assessed as zone of inhibition by disc diffusion method
Candida albicans [34] = assay: Antifungal activity against Candida albicans RCMB 005036 assessed as diameter of zone inhibition
Aspergillus fumigatus [35] = assay: Antifungal activity against Aspergillus fumigatus RCMB 002568 assessed as diameter of zone inhibition

Cc1cc(Nc2ccc(=O)n(-c3ccccc3)n2)no1
MIC (Aspergillus fumigatus [1]): 18 µg/mL (≈ 67.1 µM)
MIC (Candida albicans [2]): 18 µg/mL (≈ 67.1 µM)

Clc1cnc(C2=Nc3ccccc3SC(c3cccs3)C2)cn1 (centres undefined)
MIC (Aspergillus niger [3]): 44 µM

O=C(Nc1ccc(F)c(F)c1)N1CCn2c(nnc2C(F)(F)F)C1
MIC (Candida albicans [4]): 6.25 µg/mL (≈ 18 µM)

O=C1CCC(=O)N(CC(=O)n2c3ccccc3c3ccccc32)N1
inhibition zone (IZ) (Rhizopus microsporus): 14 mm
inhibition zone (IZ) (Candida albicans [5]): 18 mm

CCC(C)CC(C)CCCCCCCCC(=O)N[C@H]1C[C@@H](O)[C@@H](NCCN)NC(=O)[C@@H]2[C@@H](O)CCN2C(=O)[C@H]([C@H](O)CCN)NC(=O)[C@H]([C@H](O)[C@@H](O)c2ccc(O)cc2)NC(=O)[C@@H]2C[C@@H](O)CN2C(=O)[C@H]([C@@H](C)O)NC1=O (some centres undefined)
MIC (Fusarium solani): 0.25 µg/mL (≈ 0.229 µM)
MIC (Alternaria alternata): 0.25 µg/mL (≈ 0.229 µM)
MIC (Penicillium frequentans): 0.25 µg/mL (≈ 0.229 µM)
MIC (Penicillium chrysogenum): 0.25 µg/mL (≈ 0.229 µM)
MIC (Aspergillus flavus [6]): 0.25 µg/mL (≈ 0.229 µM)

CCCCCCCC(=O)O[C@@H]1[C@H](OC(=O)CCCCCCC)[C@@H](COC(c2ccccc2)(c2ccccc2)c2ccccc2)O[C@H]1n1ccc(=O)[nH]c1=O
inhibition (INH) (Aspergillus niger [7]): 99%
inhibition (INH) (Candida albicans [8]): 70%

COc1ccc(C2CC(=Nn3c(=O)cc[nH]c3=O)CC(c3ccc(OC)cc3)S2)cc1 (centres undefined)
MIC (Microsporum audouinii): 4 µg/mL (≈ 9.14 µM)
MIC (Candida albicans [2]): 0.25 µg/mL (≈ 0.571 µM)

COc1ccc(/N=N/c2sc(-n3[nH]c(=O)ccc3=O)nc2C)cc1
MIC (Candida albicans [9]): 0.2 µg/mL (≈ 0.582 µM)

OC[C@H]1O[C@@H](Sc2nnc(Cc3ccc4ccc5cccc6ccc3c4c56)c3ccccc23)[C@H](O)[C@H]1O
MIC (Aspergillus fumigatus [10]): 17 µg/mL (≈ 33.4 µM)

CCOC(=O)c1sc2nc3c(nc2c1N)c(C)nn3-c1ccccc1
MIC [11]: 5 µg/mL (≈ 14.1 µM)
MIC (Geotrichum candidum): 5 µg/mL (≈ 14.1 µM)
MIC (Candida albicans [2]): 5 µg/mL (≈ 14.1 µM)

O=c1ccc(=O)n(-c2nc(-c3cc4ccccc4oc3=O)cs2)[nH]1
MIC (Candida albicans [12]): 5.6 µg/mL (≈ 16.5 µM)

C[C@@H]1[C@H](O)[C@@H](C)/C=C/C=C/C=C/C=C/C=C/C=C/C=C/[C@H](O[C@@H]2O[C@H](C)[C@@H](O)[C@H](N)[C@@H]2O)C[C@@H]2O[C@](O)(C[C@@H](O)C[C@@H](O)[C@H](O)CC[C@@H](O)C[C@@H](O)CC(=O)O[C@H]1C)C[C@H](O)[C@H]2C(=O)O [AMPHOTERICIN B]
MIC (Candida albicans [13]): 1.9 µg/mL (≈ 2.06 µM)
MIC (Cryptococcus neoformans): 0.39 µg/mL (≈ 0.422 µM)
MIC (Candida albicans [14]): 1 µg/mL
inhibition zone (IZ) (Aspergillus flavus [15]): 15 mm
MIC (Candida albicans [12]): 1.9 µg/mL (≈ 2.06 µM)
inhibition zone (IZ) (Aspergillus niger [16]): 17 mm
MIC (Candida albicans [17]): 3.9 µg/mL (≈ 4.22 µM)
MIC (Candida albicans [9]): 0.2 µg/mL (≈ 0.216 µM)
MIC (Candida albicans [18]): 0.2 µg/mL (≈ 0.216 µM)
inhibition zone (IZ) [19]: 20 mm
MIC (Aspergillus fumigatus [20]): 1.95 µg/mL (≈ 2.11 µM)
inhibition zone (IZ) (Aspergillus fumigatus [21]): 24 mm

Cc1ccc(-c2ccc(=O)n(CC3=C(Cn4nc(-c5ccc(C)cc5)ccc4=O)[C@]4(C)CCCC(C)(C)C4=CC3=O)n2)cc1
MIC (Fusarium solani): 5 µg/mL (≈ 8.52 µM)
MIC (Alternaria alternata): 5 µg/mL (≈ 8.52 µM)
MIC (Penicillium frequentans): 5 µg/mL (≈ 8.52 µM)
MIC (Penicillium chrysogenum): 5 µg/mL (≈ 8.52 µM)
MIC (Aspergillus flavus [6]): 5 µg/mL (≈ 8.52 µM)

Cc1nc2c(sc3nc4c(nc32)c(C)nn4-c2ccccc2)c(=O)o1
MIC [11]: 3 µg/mL (≈ 8.59 µM)
MIC (Geotrichum candidum): 4 µg/mL (≈ 11.4 µM)
MIC (Candida albicans [2]): 3 µg/mL (≈ 8.59 µM)

O=C1N/C(=N/c2nn(-c3ccccc3)nc2C(=O)Nc2cnccn2)S/C1=C\c1ccccc1
MIC (Aspergillus fumigatus [22]): < 214 µg/mL

C[C@@H](c1ncncc1F)[C@](O)(Cn1cncn1)c1ccc(F)cc1F [VORICONAZOLE]
inhibition zone (IZ) [23]: 17 mm
inhibition zone (IZ) (Aspergillus niger [16]): 20 mm
inhibition zone (IZ) (Aspergillus terreus): 20 mm

OC(Cn1cncn1)(Cn1cncn1)c1ccc(F)cc1F [FLUCONAZOLE]
inhibition zone (IZ) (Aspergillus flavus [24]): 2.9 mm
MIC (Cryptococcus neoformans): 8 µg/mL (≈ 26.1 µM)
MIC (Candida albicans [14]): > 64 µg/mL
MIC (Nakaseomyces glabratus): 0.78 µg/mL (≈ 2.55 µM)
inhibition zone (IZ) (Candida albicans [25]): 22 mm
inhibition zone (IZ) (Rhizopus microsporus): 12 mm
inhibition zone (IZ) (Aspergillus niger [26]): 20 mm
MIC50 (Candida albicans [27]): 0.78 µg/mL (≈ 2.55 µM)
inhibition zone (IZ) (Saccharomyces cerevisiae [28]): 13 mm
MIC (Candida albicans [29]): 0.125 µg/mL (≈ 0.408 µM)
inhibition zone (IZ) (Saccharomyces cerevisiae [30]): 11 mm
inhibition zone (IZ) (Candida albicans [31]): 24 mm
MIC (Candida albicans [32]): ≤ 0.25 µg/mL
MIC (Pichia kudriavzevii): 0.78 µg/mL (≈ 2.55 µM)
MIC (Candida parapsilosis): 0.78 µg/mL (≈ 2.55 µM)
MIC (Aspergillus fumigatus [22]): < 212 µg/mL
inhibition zone (IZ) (Candida albicans [33]): 2.1 mm
inhibition zone (IZ) (Candida albicans [5]): 10 mm

Cc1nn(-c2ccccc2)c2nc3sc(C(=O)OCC(=O)c4ccccc4)c(N)c3nc12
MIC [11]: 5 µg/mL (≈ 11.3 µM)
MIC (Geotrichum candidum): 4 µg/mL (≈ 9.02 µM)
MIC (Candida albicans [2]): 5 µg/mL (≈ 11.3 µM)

COc1ccc(NC(=O)c2nn(-c3ccccc3)c(=N)c(C#N)c2C)cc1
inhibition zone (IZ) (Candida albicans [34]): 26 mm
inhibition zone (IZ) (Aspergillus fumigatus [35]): 20 mm

O=C(Nc1ccc(F)cc1)N1CCn2c(nnc2C(F)(F)F)C1
MIC (Candida albicans [4]): 6.25 µg/mL (≈ 19 µM)
